Measurements published in US9284333B2, “Fused pyrroledicarboxamides and their use as pharmaceuticals” (SANOFI, priority 2012, dated 2016).
pIC50: −log10 of the molar value.

What follows are compounds tested against Human TASK-1 channels (Homo sapiens (Human), UniProt O14649) (assay: Determination of the activity on the TASK-1 channel in Xenopus oocytes (two-microelectrode voltage clamp)). Details: compound concentration 5 μM.
Assay type: cell-based
Experimental: Determination of the activity on the TASK-1 channel in Xenopus oocytes
Human TASK-1 channels were expressed in Xenopus oocytes. For this purpose, oocytes were isolated from Xenopus laevis and defoliculated. Subsequently, TASK-1-encoding RNA synthesized in vitro was injected into the oocytes. After two days of TASK-1 protein expression, TASK-1 currents were measured by two-microelectrode voltage clamp. Data were acquired and analyzed using a TEC-10cx amplifier (NPI Electronic, Tamm, Germany) connected to an ITC-16 interface (Instrutech Corp., Long Island, USA) and Pulse software (HEKA Elektronik, Lambrecht, Germany). Oocytes were clamped to −90 mV and TASK-1 mediated currents were measured during 500 ms voltage pulses to 40 mV. Oocytes were continuously superfused with ND96 buffer containing 96 mM sodium chloride, 2 mM potassium chloride, 1.8 mM calcium chloride, 1 mM magnesium chloride, 5 mM 4-(2-hydroxyethyl)-piperazine-1-ethanesulfonic acid (HEPES; pH adjusted to 7.4 with sodium hydroxide). All experiments were performed at room temperature. Test compounds were consecutively added to the bath solution at rising concentrations. Compound effects were calculated as the percentage inhibition of TASK-1 control current before compound addition. IC50 values were obtained by fitting the data to the general dose-response equation.

Human TASK-1 channels, sequence (O14649 whole entry): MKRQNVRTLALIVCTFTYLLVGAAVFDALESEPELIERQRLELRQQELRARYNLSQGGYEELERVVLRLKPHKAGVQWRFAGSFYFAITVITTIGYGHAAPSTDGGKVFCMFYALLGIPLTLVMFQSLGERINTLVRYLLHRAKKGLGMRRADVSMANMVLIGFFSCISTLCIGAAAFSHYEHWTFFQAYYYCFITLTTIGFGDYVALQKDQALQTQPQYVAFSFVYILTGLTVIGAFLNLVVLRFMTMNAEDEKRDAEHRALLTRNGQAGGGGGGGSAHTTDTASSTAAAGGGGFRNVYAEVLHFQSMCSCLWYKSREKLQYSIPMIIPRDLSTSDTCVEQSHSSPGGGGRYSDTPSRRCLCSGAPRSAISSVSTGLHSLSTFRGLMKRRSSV

inhibition at 5 µM [%] | SMILES
86 | CC(C)[C@@H](NC(=O)c1cc(C(=O)NCc2ncco2)c2n1CCOC2)c1ccc(F)cc1 [16ll, 3,4-Dihydro-1H-pyrrolo[2,1-c][1,4]oxazine-6,8-dicarboxylic acid 6-{[(R)-1-(4-fluoro-phenyl)-2-methyl-propyl]-amide} 8-[(oxazol-2-ylmethyl)-amide]]

Same assay, conditions: human TASK-1 expressed in Xenopus oocytes, room temperature; read-out: IC50 value for TASK-1 inhibition

pIC50 | SMILES
7.30 | CC[C@@H](NC(=O)c1cc(C(=O)N2CCC[C@@H]2C)n2c1COCC2)c1c(F)cc(C(F)(F)F)cc1F [16cl, 6-((S)-2-Methyl-pyrrolidine-1-carbonyl)-3,4-dihydro-1H-pyrrolo[2,1-c][1,4]oxazine-8-carboxylic acid [(R)-1-(2,6-difluoro-4-trifluoromethyl-phenyl)-propyl]-amide]
6.74 | CC[C@@H](NC(=O)c1cc(C(=O)Nc2ccc(F)cn2)n2c1COCC2)c1ccccc1 [16hc, 3,4-Dihydro-1H-pyrrolo[2,1-c][1,4]oxazine-6,8-dicarboxylic acid 6-[(5-fluoro-pyridin-2-yl)-amide] 8-[((R)-1-phenyl-propyl)-amide]]
6.92 | CC[C@@H](NC(=O)c1cc(C(=O)N2CCC[C@@H]2C)n2c1COCC2)c1ccc(F)cc1 [16az, 6-((S)-2-Methyl-pyrrolidine-1-carbonyl)-3,4-dihydro-1H-pyrrolo[2,1-c][1,4]oxazine-8-carboxylic acid [(R)-1-(4-fluoro-phenyl)-propyl]-amide]
6.10 | CC[C@@H](NC(=O)c1cc(C(=O)N2CCC[C@@H]2C)n2c1COCC2)c1ccc(C#N)cc1Cl [16bb, 6-((S)-2-Methyl-pyrrolidine-1-carbonyl)-3,4-dihydro-1H-pyrrolo[2,1-c][1,4]oxazine-8-carboxylic acid [(R)-1-(2-chloro-4-cyano-phenyl)-propyl]-amide]
5.31 | CC[C@@H](NC(=O)c1cc(C(=O)N[C@H](CC)c2cccc(C(=O)O)c2)n2c1COCC2)c1ccccc1 [16rm, 3-((R)-1-{[8-((R)-1-Phenyl-propylcarbamoyl)-3,4-dihydro-1H-pyrrolo[2,1-c][1,4]oxazine-6-carbonyl]-amino}-propyl)-benzoic acid]
6.55 | CC[C@@H](NC(=O)c1cc(C(=O)N2CCC[C@@H]2C)n2c1COCC2)c1ccc(OC(F)(F)F)cc1 [16aw, 6-((S)-Methyl-pyrrolidine-1-carbonyl)3,4-dihydro-1H-pyrrolo[2,1-c][1,4]oxazine-8-carboxylic acid [(R)-1-(4-trifluoromethoxy-phenyl)-propyl]-amide]
5.82 | CC[C@@H](NC(=O)c1cc(C(=O)NC(C2CC2)C2CC2)n2c1COCC2)c1ccc(C(F)(F)F)nc1 [16pa, 3,4-Dihydro-1H-pyrrolo[2,1-c][1,4]oxazine-6,8-dicarboxylic acid 6-dicyclopropylmethyl-amide 8-{[(R)-1-(6-trifluoromethyl-pyridin-3-yl)-propyl]-amide}]
6.35 | CC[C@@H](NC(=O)c1cc(C(=O)N(CC)Cc2nnn(C)n2)n2c1COCC2)c1ccccc1 [16rp, 3,4-Dihydro-1H-pyrrolo[2,1-c][1,4]oxazine-6,8-dicarboxylic acid 6-[ethyl-(2-methyl-2H-tetrazol-5-ylmethyl)-amide] 8-[((R)-1-phenyl-propyl)-amide]]
6.57 | CC[C@@H](NC(=O)c1cc(C(=O)N2CC[C@H](OC)C2)n2c1COCC2)c1ccc(F)cc1Cl [16nn, 6-((S)-3-Methoxy-pyrrolidine-1-carbonyl)-3,4-dihydro-1H-pyrrolo[2,1-c][1,4]oxazine-8-carboxylic acid [(R)-1-(2-chloro-4-fluoro-phenyl)-propyl]-amide]
5.59 | CC[C@@H](NC(=O)c1cc(C(=O)N2CCC[C@@H]2C)n2c1COCC2)c1cccc(O)c1 [16ab, 6-((S)-2-Methyl-pyrrolidine-1-carbonyl)-3,4-dihydro-1H-pyrrolo[2,1-c][1,4]oxazine-8-carboxylic acid [(R)-1-(3-hydroxy-phenyl)-propyl]-amide]
5.74 | CCO[C@H]1CCN(C(=O)c2cc(C(=O)N[C@H](CC)c3ccccc3)c3n2CCOC3)C1 [16es, 6-((S)-3-Ethoxy-pyrrolidine-1-carbonyl)-3,4-dihydro-1H-pyrrolo[2,1-c][1,4]oxazine-8-carboxylic acid ((R)-1-phenyl-propyl)-amide]
5.72 | CC[C@@H](NC(=O)c1cc(C(=O)N2CCC(F)(F)CC2)n2c1CCCC2)c1ccccc1 [16mo, 3-(4,4-Difluoro-piperidine-1-carbonyl)-5,6,7,8-tetrahydro-indolizine-1-carboxylic acid ((R)-1-phenyl-propyl)-amide]
6.35 | CC[C@@H](NC(=O)c1cc(C(=O)N2CCC[C@@H]2C)n2c1COCC2)c1ccc(C#N)s1 [16rd, 6-((S)-2-Methyl-pyrrolidine-1-carbonyl)-3,4-dihydro-1H-pyrrolo[2,1-c][1,4]oxazine-8-carboxylic acid [(R)-1-(5-cyano-thiophen-2-yl)-propyl]-amide]
6.77 | CCC(NC(=O)c1cc(C(=O)N[C@H](CC)c2ccccc2)c2n1CCOC2)c1nccs1 (stereo partly drawn) [16ij, 3,4-Dihydro-1H-pyrrolo[2,1-c][1,4]oxazine-6,8-dicarboxylic acid 8-[((R)-1-phenyl-propyl)-amide] 6-[(1-thiazol-2-yl-propyl)-amide]]
7.40 | CC[C@@H](NC(=O)c1cc(C(=O)N[C@H](CC)c2cccc(OC)n2)n2c1COCC2)c1ccccc1 [16ic, 3,4-dihydro-1H-pyrrolo[2,1-c][1,4]oxazine-6,8-dicarboxylic acid 6-{[(R)-1-(6-methoxy-pyridin-2-yl)-propyl]-amide} 8-[((R)-1-phenyl-propyl)-amide]]
6.09 | CC[C@@H](NC(=O)c1cc(C(=O)N2CCC[C@@H]2C)n2c1COCC2)c1ccc(C(F)(F)F)cn1 [16bl, 6-((S)-2-Methyl-pyrrolidine-1-carbonyl)-3,4-dihydro-1H-pyrrolo[2,1-c][1,4]oxazine-8-carboxylic acid [(R)-1-(5-trifluoromethyl-pyridin-2-yl)-propyl]-amide]
7.00 | CC[C@@H](NC(=O)c1cc(C(=O)NCC2CC2)n2c1COCC2)c1ccccc1 [16gc, 3,4-Dihydro-1H-pyrrolo[2,1-c][1,4]oxazine-6,8-dicarboxylic acid 6-cyclopropylmethyl-amide 8-[((R)-1-phenyl-propyl)-amide]]
6.21 | CCC(NC(=O)c1cc(C(=O)N[C@H](CC)c2ccccc2)c2n1CCOC2)c1cnc(OC)nc1 (single isomer, unassigned) [16hu]
6.66 | CC[C@H](NC(=O)c1cc(C(=O)N[C@H](CC)c2ccccc2)n2c1COCC2)c1ncccn1 [16ke, 3,4-Dihydro-1H-pyrrolo[2,1-c][1,4]oxazine-6,8-dicarboxylic acid 6-[((R)-1-phenyl-propyl)-amide] 8-[((S)-1-pyrimidin-2-yl-propyl)-amide]]
6.85 | CC[C@@H](NC(=O)c1cc(C(=O)N2CCC[C@@H]2C)n2c1COCC2)c1c(Cl)cncc1Cl [16bv, 6-((S)-2-Methyl-pyrrolidine-1-carbonyl)-3,4-dihydro-1H-pyrrolo[2,1-c][1,4]oxazine-8-carboxylic acid [(R)-1-(3,5-dichloro-pyridin-4-yl)-propyl]-amide]
6.28 | CC[C@@H](NC(=O)c1cc(C(=O)NCc2ncccn2)n2c1COCC2)c1ccccc1 [16hj, 3,4-Dihydro-1H-pyrrolo[2,1-c][1,4]oxazine-6,8-dicarboxylic acid 8-[((R)-1-phenyl-propyl)-amide] 6-[(pyrimidin-2-ylmethyl)-amide]]
6.07 | CC[C@@H](NC(=O)c1cc(C(=O)N2CCC[C@@H]2C)n2c1COC(C)(C)C2)c1ccc(C(F)(F)F)nc1 [16pi, 3,3-Dimethyl-6-((S)-2-methyl-pyrrolidine-1-carbonyl)-3,4-dihydro-1H-pyrrolo[2,1-c][1,4]oxazine-8-carboxylic acid [(R)-1-(6-trifluoromethyl-pyridin-3-yl)-propyl]-amide]
6.77 | CC[C@@H](NC(=O)c1cc(C(=O)NCc2nccs2)n2c1COCC2)c1ccccc1 [16il, 3,4-Dihydro-1H-pyrrolo[2,1-c][1,4]oxazine-6,8-dicarboxylic acid 8-[((R)-1-phenyl-propyl)-amide] 6-[(thiazol-2-ylmethyl)-amide]]
6.21 | CC[C@H](NC(=O)c1cc(C(=O)N[C@H](CC)c2ncccn2)c2n1CCOC2)c1ccccc1 [16kb, 3,4-Dihydro-1H-pyrrolo[2,1-c][1,4]oxazine-6,8-dicarboxylic acid 6-[((S)-1-phenyl-propyl)-amide] 8-[((R)-1-pyrimidin-2-yl-propyl)-amide]]
6.57 | CC(C)[C@@H](NC(=O)c1cc(C(=O)N2CCCC2)c2n1CCOC2)c1ccc(F)cc1 [16lm, 8-(Pyrrolidine-1-carbonyl)-3,4-dihydro-1H-pyrrolo[2,1-c][1,4]oxazine-6-carboxylic acid [(R)-1-(4-fluoro-phenyl)-2-methyl-propyl]-amide]
6.51 | CC[C@@H](NC(=O)c1cc(C(=O)NCc2cnccn2)c2n1CCOC2)c1ccc(F)cc1Cl [16ko, 3,4-Dihydro-1H-pyrrolo[2,1-c][1,4]oxazine-6,8-dicarboxylic acid 6-{[(R)-1-(2-chloro-4-fluoro-phenyl)-propyl]-amide} 8-[(pyrazin-2-ylmethyl)-amide]]
